According to patent US11319299B2, “Substituted carboxamides as inhibitors of WDR5 protein-protein binding” (PROPELLON THERAPEUTICS INC., priority 2016, dated 2022):

Each molecule was assayed against WDR5 (Homo sapiens (Human), UniProt P61964) (assay: Surface Plasmon Resonance (SPR) assay, KD and residence time). Conditions: surface plasmon resonance (SPR) assay; read-out: WDR5 binding affinity (KD).
Assay type: binding

Point of comparison: `C[C@@H]1CN(c2cc(F)c(-c3cnc(N4CCOCC4)nc3)cc2NC(=O)c2cc(F)cc(C(F)(F)F)c2)C[C@H](C)N1C` [Example 176, 3-fluoro-N-[4-fluoro-5-(2-morpholin-4-ylpyrimidin-5-yl)-2-[(3R,5S)-3,4,5-trimethylpiperazin-1-yl]phenyl]-5-(trifluoromethyl)benzamide], Kd 0.0509 µM. Against it:
- C[C@@H]1CN(c2cc(F)c(-c3cncc(C(=O)NC(C)(C)C)c3)cc2NC(=O)c2c[nH]c(=O)cc2C(F)(F)F)C[C@H](C)N1C [Example 174, N-[5-[5-(tert-butylcarbamoyl)pyridin-3-yl]-4-fluoro-2-[(3R,5S)-3,4,5-trimethylpiperazin-1-yl]phenyl]-6-oxo-4-(trifluoromethyl)-1H-pyridine-3-carboxamide] — 33-fold lower, 0.00153 µM
- C[C@@H]1CN(c2cc(F)c(-c3cnc(N4CCOCC4)nc3)cc2NC(=O)c2cc(Cl)cc(C(F)(F)F)c2)C[C@H](C)N1C [Example 175, 3-chloro-N-[4-fluoro-5-(2-morpholin-4-ylpyrimidin-5-yl)-2-[(3R,5S)-3,4,5-trimethylpiperazin-1-yl]phenyl]-5-(trifluoromethyl)benzamide] — 2.5-fold lower, 0.0206 µM
- CN(C)[C@@H]1CCN(c2cc(F)c(-c3ccc(N4CCOCC4)cc3)cc2NC(=O)c2cn[nH]c2)C1 [Example 177, N-[4-fluoro-5-(4-morpholin-4-ylphenyl)-2-[(3R)-3-(dimethylamino)pyrrolidin-1-yl]phenyl]-1H-pyrazole-4-carboxamide] — higher, > 0.2 µM
- C[C@@H]1CN(c2cc(F)c(-c3cncc(C(N)=O)c3)cc2NC(=O)c2c[nH]c(=O)cc2C(F)(F)F)C[C@H](C)N1C [Example 179, N-[5-(5-carbamoylpyridin-3-yl)-4-fluoro-2-[(3R,5S)-3,4,5-trimethylpiperazin-1-yl]phenyl]-6-oxo-4-(trifluoromethyl)-1H-pyridine-3-carboxamide] — 4.4-fold lower, 0.0115 µM
- C[C@@H]1CN(c2cc(F)c(-c3cncc(C(F)(F)F)c3)cc2NC(=O)c2cn(C)c(=O)cc2C(F)(F)F)C[C@H](C)N1C [Example 180, N-[4-fluoro-2-[(3R,5S)-3,4,5-trimethylpiperazin-1-yl]-5-[5-(trifluoromethyl)pyridin-3-yl]phenyl]-1-methyl-6-oxo-4-(trifluoromethyl)pyridine-3-carboxamide] — within 1.5-fold, 0.0354 µM
- CN(C)[C@@H]1CCN(c2cc(F)c(-c3cnc(N4CCOCC4)nc3)cc2NC(=O)c2cn(C)c(=O)cc2C(F)(F)F)C1 [Example 184, N-[4-fluoro-5-(2-morpholin-4-ylpyrimidin-5-yl)-2-[(3R)-3-(dimethylamino)pyrrolidin-1-yl]phenyl]-1-methyl-6-oxo-4-(trifluoromethyl)pyridine-3-carboxamide] — 5.2-fold lower, 0.0098 µM
- CN(C)[C@@H]1CCN(c2cc(F)c(-c3cnc(N4CCOCC4)nc3)cc2NC(=O)c2c[nH]nc2C(F)(F)F)C1 [Example 185, N-[4-fluoro-5-(2-morpholin-4-ylpyrimidin-5-yl)-2-[(3R)-3-(dimethylamino)pyrrolidin-1-yl]phenyl]-3-(trifluoromethyl)-1H-pyrazole-4-carboxamide] — 1.7-fold lower, 0.0298 µM
- C[C@@H]1CN(c2cc(F)c(-c3cnc(N4CCOCC4)nc3)cc2NC(=O)c2cccc(C(F)(F)F)c2)C[C@H](C)N1C [Example 186, N-[4-fluoro-5-(2-morpholin-4-ylpyrimidin-5-yl)-2-[(3R,5S)-3,4,5-trimethylpiperazin-1-yl]phenyl]-3-(trifluoromethyl)benzamide] — within 1.5-fold, 0.0402 µM
- C[C@@H]1CN(c2cc(F)c(-c3cnc(N4CCOCC4)nc3)cc2NC(=O)c2cncnc2C(F)(F)F)C[C@H](C)N1C [Example 187, N-[4-fluoro-5-(2-morpholin-4-ylpyrimidin-5-yl)-2-[(3R,5S)-3,4,5-trimethylpiperazin-1-yl]phenyl]-4-(trifluoromethyl)pyrimidine-5-carboxamide] — 4.1-fold higher, 0.209 µM
- C[C@@H]1CN(c2cc(F)c(-c3cnc(N4CCOCC4)nc3)cc2NC(=O)c2scnc2C(F)(F)F)C[C@H](C)N1C [Example 188, N-[4-fluoro-5-(2-morpholin-4-ylpyrimidin-5-yl)-2-[(3R,5S)-3,4,5-trimethylpiperazin-1-yl]phenyl]-4-(trifluoromethyl)-1,3-thiazole-5-carboxamide] — 1.8-fold higher, 0.0932 µM
- C[C@@H]1CN(c2cc(F)c(-c3cnc(N4CCOCC4)nc3)cc2NC(=O)c2cc(C(F)(F)F)ccc2F)C[C@H](C)N1C [Example 189, 2-fluoro-N-[4-fluoro-5-(2-morpholin-4-ylpyrimidin-5-yl)-2-[(3R,5S)-3,4,5-trimethylpiperazin-1-yl]phenyl]-5-(trifluoromethyl)benzamide] — 8.7-fold higher, 0.442 µM
- COc1cc(F)cc(C(=O)Nc2cc(-c3cnc(N4CCOCC4)nc3)c(F)cc2N2C[C@@H](C)N(C)[C@@H](C)C2)c1 [Example 190, 3-fluoro-N-[4-fluoro-5-(2-morpholin-4-ylpyrimidin-5-yl)-2-[(3R,5S)-3,4,5-trimethylpiperazin-1-yl]phenyl]-5-methoxybenzamide] — 3.5-fold lower, 0.0147 µM
- C[C@@H]1CN(c2cc(F)c(-c3ccc(N4CCOCC4)cc3)cc2NC(=O)c2cc(Cl)cc(Cl)c2)C[C@H](C)N1C [Example 191, 3,5-dichloro-N-[4-fluoro-5-(4-morpholin-4-ylphenyl)-2-[(3R,5S)-3,4,5-trimethylpiperazin-1-yl]phenyl]benzamide] — 2.4-fold lower, 0.0215 µM
- C[C@@H]1CN(c2cc(F)c(-c3cnc(N4CCCN(C)CC4)nc3)cc2NC(=O)c2ccc(F)cc2C(F)(F)F)C[C@H](C)N1C [Example 203, 4-fluoro-N-[4-fluoro-5-[2-(4-methyl-1,4-diazepan-1-yl)pyrimidin-5-yl]-2-[(3R,5S)-3,4,5-trimethylpiperazin-1-yl]phenyl]-2-(trifluoromethyl)benzamide] — 31-fold lower, 0.00166 µM
- C[C@@H]1CN(c2cc(F)c(-c3ccc(N4CCOCC4)cc3)cc2NC(=O)c2cn(C)c(=O)cc2C(F)(F)F)C[C@H](C)N1C [Example 204, N-[4-fluoro-5-(4-morpholin-4-ylphenyl)-2-[(3R,5S)-3,4,5-trimethylpiperazin-1-yl]phenyl]-1-methyl-6-oxo-4-(trifluoromethyl)pyridine-3-carboxamide] — 3.7-fold lower, 0.0138 µM
- C[C@@H]1CN(c2cc(F)c(-c3cncc(C#N)c3)cc2NC(=O)c2c[nH]c(=O)cc2C(F)(F)F)C[C@H](C)N1C [Example 205, N-[5-(5-cyanopyridin-3-yl)-4-fluoro-2-[(3R,5S)-3,4,5-trimethylpiperazin-1-yl]phenyl]-6-oxo-4-(trifluoromethyl)-1H-pyridine-3-carboxamide] — 6.2-fold lower, 0.00815 µM
- C[C@@H]1CN(c2cc(F)c(-c3cncc(Cl)c3)cc2NC(=O)c2c[nH]c(=O)cc2C(F)(F)F)C[C@H](C)N1C [Example 206, N-[5-(5-chloropyridin-3-yl)-4-fluoro-2-[(3R,5S)-3,4,5-trimethylpiperazin-1-yl]phenyl]-6-oxo-4-(trifluoromethyl)-1H-pyridine-3-carboxamide] — 13-fold lower, 0.00385 µM
- C[C@@H]1CN(c2cc(F)c(-c3cccnc3OC3CCCCC3)cc2NC(=O)c2c[nH]c(=O)cc2C(F)(F)F)C[C@H](C)N1C [Example 207, N-[5-(2-cyclohexyloxypyridin-3-yl)-4-fluoro-2-[(3R,5S)-3,4,5-trimethylpiperazin-1-yl]phenyl]-6-oxo-4-(trifluoromethyl)-1H-pyridine-3-carboxamide] — 7.6-fold lower, 0.00669 µM
